This experiment has as its target T1, Angiotensin-II-Receptor (Rattus norvegicus, UniProt P25095).
T1 construct: The tissue (rat's lung) is homogenised in Tris buffer; from tissue; host or cells: rat lung homogenate
T1 sequence (P25095 1-359): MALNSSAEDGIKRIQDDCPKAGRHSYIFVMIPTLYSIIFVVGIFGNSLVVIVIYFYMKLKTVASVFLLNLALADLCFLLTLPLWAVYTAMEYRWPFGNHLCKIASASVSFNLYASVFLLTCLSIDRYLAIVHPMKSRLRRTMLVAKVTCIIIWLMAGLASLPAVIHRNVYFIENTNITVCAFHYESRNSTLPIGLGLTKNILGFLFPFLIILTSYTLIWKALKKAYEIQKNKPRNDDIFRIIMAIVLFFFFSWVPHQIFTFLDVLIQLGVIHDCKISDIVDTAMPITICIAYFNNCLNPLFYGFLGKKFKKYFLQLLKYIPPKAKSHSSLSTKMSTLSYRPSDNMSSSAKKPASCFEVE
In words: Angiotensin-II-Receptor Bonding ([125I]-angiotensin-II displacement, rat's lung homogenate). The note with it: 50 pM [125I]-angiotensin-II, 60 minutes at 37° C., pH 7.40. The format is binding. How it is done: Description of Method: Angiotensin-II-Receptor Bonding
The tissue (rat's lung) is homogenised in Tris buffer (50 mMol Tris, 150 mMol NaCl, 5 mMol EDTA, pH 7.40) and centrifuged twice for 20 minutes each time at 20,000×g. The finished pellet is resuspended in incubation buffer (50 mMol Tris, 5 mMol MgCl2, 0.2% BSA, pH 7.40) 1:75, based on the moist weight of the tissue. Each 0.1 ml of homogenate is incubated for 60 minutes at 37° C. with 50 pM [^125 I]-angiotensin-II (NEN, Dreieich, FRG) and increasing concentrations of the test substance in a total volume of 0.25 ml. The incubation is ended by rapid filtration through glass fibre filter mats. The filters are each washed with 4 ml of ice cold buffer (25 mMol Tris, 2.5 mMol MgCl2, 0.1% BSA, pH 7.40). The bound radioactivity is measured in a gamma-counter. The corresponding IC50 value is determined from the dosage-activity curve.
Substances A to H show the following IC50 values in the test described: […]
`CCCc1nc2c(C)cc(NC(=NC#N)NC)cc2n1Cc1ccc(-c2ccccc2C(=O)O)cc1` [Substance A, 4'-[[2-n-Propyl-4-methyl-6-(2-cyano-3-methyl-guanidino)-1H-benzimidazol-1-yl]-methyl]-biphenyl-2-carboxylic acid] came in with an IC50 of 11 nM.
The result for `CCCc1nc2c(C)cc(NC(=NC#N)N(C)C)cc2n1Cc1ccc(-c2ccccc2-c2nnn[nH]2)cc1` [Substance B, 4'-[[2-n-propyl-4-methyl-6-(2-cyano-3,3-dimethyl-guanidino) -1H-benzimidazol-1-yl]-methyl]-2-(1H-tetrazol-5-yl)-biphenyl] reads 3 nM; that for `CCCc1nc2c(C)cc(NC(=C(C#N)C#N)N(C)C)cc2n1Cc1ccc(-c2ccccc2C(=O)O)cc1` [Substance C, 4'-[[2-n-propyl-4-methyl-6-(2,2-dicyano-1-dimethylamino-etheneamino) -1H-benzimidazol-1-yl]-methyl]-biphenyl-2-carboxylic acid], 64 nM.
The molecule `CCCc1nc2c(C)cc(NC(=C[N+](=O)[O-])N(C)C)cc2n1Cc1ccc(-c2ccccc2C(=O)O)cc1` [Substance D, 4'-[[2-n-propyl-4-methyl-6-(1-dimethylamino-2-nitro-etheneamino) -1H-benzimidazol-1-yl]methyl]-biphenyl-2-carboxylic acid] yielded an IC50 of 13 nM.
The result for `CCCc1nc2c(C)cc(NC(=NS(N)(=O)=O)NC)cc2n1Cc1ccc(-c2ccccc2C(=O)O)cc1` [Substance E, 4'-[[2-n-propyl-4-methyl-6-(3-methyl-2-amidosulphonylguanidino) -1H-benzimidazol-1-yl]methyl]-biphenyl-2-carboxylic acid] reads 56 nM.
Then `CCCc1nc2c(C)cc(NC(=C[N+](=O)[O-])N(C)C)cc2n1Cc1ccc(-c2ccccc2-c2nnn[nH]2)cc1` [Substance F, 4'-[[2-n-propyl-4-methyl-6-(1,1-dimethylamino-2-nitro-etheneamino) -1H-benzimidazol-1-yl]-methyl]-2-(1H-tetrazol-5-yl)-biphenyl], with 2 nM.
The result for `CCc1nc2c(C)cc(Nc3c(N(C)C)c(=O)c3=O)cc2n1Cc1ccc(-c2ccccc2C(=O)O)cc1` [Substance G, 4'-[[2-ethyl-4-methyl-6-[(2-dimethylamino-3,4-dioxo-1-cyclobuten-1-yl) -amino]-1H-benzimidazol-1-yl]-methyl]-biphenyl-2-carboxylic acid] reads 17 nM; that for `CCc1nc2c(C)cc(NC(=NS(C)(=O)=O)N(C)C)cc2n1Cc1ccc(-c2ccccc2-c2nnn[nH]2)cc1` [Substance H, 4'-[[2-ethyl-4-methyl-6-(3,3-dimethyl-2-methylsulphonyl-guanidino) -1H-benzimidazol-1-yl]methyl]-2-(1H-tetrazol-5-yl)-biphenyl], 4 nM.
